Test results as given in the NIST ThermoML archive (doi:10.1016/j.jct.2018.02.013).

Columns and labels:
[1] = wn = mass fraction of the nth substance listed; details: 101 kPa, Liquid; for mass density: Vibrating tube method; for viscosity: Cone and plate viscometry; for thermal conductivity: transient hot wire; for electrical conductivity: Direct current cell with electrodes
[2] = molar heat capacity at constant pressure; wn = mass fraction of the nth substance listed; details: 101 kPa, Liquid, Small sample (50 mg) DSC

CCCCCCCCCC(=O)[O-].CCCCCCCCCCCCCC[P+](CCCCCC)(CCCCCC)CCCCCC [trihexyltetradecylphosphonium decanoate] + O
w2 = 0.1415
Details | electrical conductivity [S/m] | mass density [kg/m3] | molar heat capacity at constant pressure [J/K/mol] | thermal conductivity [W/m/K] | viscosity [mPa·s]
[1], 298.15 K | – | 899.1 | – | – | –
[1], 298.2 K | – | – | – | – | 91.87
[1], 298.55 K | – | – | – | 0.1861 | –
[1], 299.2 K | 0.03 | – | – | – | –
[1], 303.15 K | – | 895.8 | – | – | –
[1], 303.2 K | – | – | – | – | 76.66
[1], 303.6 K | 0.0369 | – | – | – | –
[1], 307.51 K | – | – | – | 0.1849 | –
[1], 308.2 K | – | – | – | – | 64.23
[1], 308.8 K | 0.0436 | – | – | – | –
[1], 313.15 K | – | 889 | – | – | –
[1], 313.2 K | 0.0524 | – | – | – | 53.34
[1], 317.84 K | – | – | – | 0.1829 | –
[1], 318.2 K | – | – | – | – | 45
[1], 318.8 K | 0.0639 | – | – | – | –
[1], 323.15 K | – | 882.3 | – | – | –
[1], 323.2 K | – | – | – | – | 37.98
[1], 323.6 K | 0.0733 | – | – | – | –
[1], 328.2 K | – | – | – | – | 32.86
[1], 328.68 K | – | – | – | 0.1809 | –
[1], 328.8 K | 0.0865 | – | – | – | –
[1], 333.15 K | – | 875.4 | – | – | –
[1], 333.2 K | 0.1 | – | – | – | 28.28
[1], 337.66 K | – | – | – | 0.1799 | –
[1], 338.2 K | – | – | – | – | 24.62
[1], 338.8 K | 0.118 | – | – | – | –
[1], 343.15 K | – | 868.2 | – | – | –
[1], 343.2 K | – | – | – | – | 21.4
[1], 343.8 K | 0.132 | – | – | – | –
[1], 347.13 K | – | – | – | 0.1785 | –
[1], 348.2 K | – | – | – | – | 18.91
[1], 348.9 K | 0.156 | – | – | – | –
[1], 353.15 K | – | 860.8 | – | – | –
[1], 353.2 K | – | – | – | – | 17.1
[1], 358.2 K | – | – | – | 0.1762 | 15.4
[1], 363.15 K | – | 853.7 | – | – | –
[1], 363.2 K | – | – | – | – | 13.95
[1], 368.2 K | – | – | – | – | 12.08
[2], 298.15 K | – | – | 313.81 | – | –
[2], 303.15 K | – | – | 319.48 | – | –
[2], 308.15 K | – | – | 323.73 | – | –
[2], 313.15 K | – | – | 326.79 | – | –
[2], 318.15 K | – | – | 328.54 | – | –
[2], 323.15 K | – | – | 332.14 | – | –
[2], 328.15 K | – | – | 335.3 | – | –
[2], 333.15 K | – | – | 338.57 | – | –
[2], 338.15 K | – | – | 341.41 | – | –
[2], 343.15 K | – | – | 344.47 | – | –
[2], 348.15 K | – | – | 348.72 | – | –
[2], 353.15 K | – | – | 351.99 | – | –
[2], 358.15 K | – | – | 355.6 | – | –
[2], 363.15 K | – | – | 360.72 | – | –

CCCCCCCC(=O)[O-].CCCCCCCCCCCCCC[P+](CCCCCC)(CCCCCC)CCCCCC [trihexyl(tetradecyl)phosphonium octanoate] + O
w2 = 0.1478
Details | electrical conductivity [S/m] | mass density [kg/m3] | molar heat capacity at constant pressure [J/K/mol] | thermal conductivity [W/m/K] | viscosity [mPa·s]
[1], 298.15 K | – | 901.5 | – | – | –
[1], 298.2 K | – | – | – | – | 82.71
[1], 299 K | 0.0415 | – | – | – | –
[1], 299.13 K | – | – | – | 0.1872 | –
[1], 303.15 K | – | 898.1 | – | – | –
[1], 303.2 K | – | – | – | – | 70.08
[1], 304.4 K | 0.051 | – | – | – | –
[1], 307.9 K | – | – | – | 0.1852 | –
[1], 308.2 K | – | – | – | – | 58.36
[1], 308.8 K | 0.0603 | – | – | – | –
[1], 313.15 K | – | 891.3 | – | – | –
[1], 313.2 K | – | – | – | – | 48.63
[1], 313.6 K | 0.0724 | – | – | – | –
[1], 318.01 K | – | – | – | 0.1831 | –
[1], 318.2 K | 0.0882 | – | – | – | 41.34
[1], 323.15 K | – | 884.7 | – | – | –
[1], 323.2 K | – | – | – | – | 35.7
[1], 323.8 K | 0.101 | – | – | – | –
[1], 327.85 K | – | – | – | 0.1821 | –
[1], 328.2 K | – | – | – | – | 30.82
[1], 328.6 K | 0.119 | – | – | – | –
[1], 333.15 K | – | 877.7 | – | – | –
[1], 333.2 K | – | – | – | – | 26.32
[1], 333.4 K | 0.139 | – | – | – | –
[1], 337.66 K | – | – | – | 0.1801 | –
[1], 338.1 K | 0.164 | – | – | – | –
[1], 338.2 K | – | – | – | – | 22.53
[1], 343.15 K | – | 870.8 | – | – | –
[1], 343.2 K | – | – | – | – | 19.93
[1], 343.5 K | 0.182 | – | – | – | –
[1], 347.48 K | – | – | – | 0.1791 | –
[1], 348.2 K | – | – | – | – | 17.29
[1], 349.7 K | 0.215 | – | – | – | –
[1], 353.15 K | – | 863.8 | – | – | –
[1], 353.2 K | – | – | – | – | 15.03
[1], 358 K | – | – | – | 0.1771 | –
[1], 358.2 K | – | – | – | – | 13.44
[1], 363.15 K | – | 857.1 | – | – | –
[1], 363.2 K | – | – | – | – | 11.86
[1], 368.2 K | – | – | – | – | 10.87
[2], 298.15 K | – | – | 319.61 | – | –
[2], 303.15 K | – | – | 322.43 | – | –
[2], 308.15 K | – | – | 325.15 | – | –
[2], 313.15 K | – | – | 326.51 | – | –
[2], 318.15 K | – | – | 329.23 | – | –
[2], 323.15 K | – | – | 332.16 | – | –
[2], 328.15 K | – | – | 335.5 | – | –
[2], 333.15 K | – | – | 338.32 | – | –
[2], 338.15 K | – | – | 340.52 | – | –
[2], 343.15 K | – | – | 342.51 | – | –
[2], 348.15 K | – | – | 345.96 | – | –
[2], 353.15 K | – | – | 350.45 | – | –
[2], 358.15 K | – | – | 353.8 | – | –
[2], 363.15 K | – | – | 358.19 | – | –

CCCCCC(=O)[O-].CCCCCCCCCCCCCC[P+](CCCCCC)(CCCCCC)CCCCCC [trihexyl(tetradecyl)phosphonium hexanoate] + O
w2 = 0.1583
Details | electrical conductivity [S/m] | mass density [kg/m3] | molar heat capacity at constant pressure [J/K/mol] | thermal conductivity [W/m/K] | viscosity [mPa·s]
[1], 298.15 K | – | 905 | – | – | –
[1], 298.2 K | – | – | – | – | 79.44
[1], 298.75 K | – | – | – | 0.1871 | –
[1], 299.4 K | 0.0753 | – | – | – | –
[1], 303.15 K | – | 901.7 | – | – | –
[1], 303.2 K | – | – | – | – | 63.83
[1], 304 K | 0.0926 | – | – | – | –
[1], 307.76 K | – | – | – | 0.1858 | –
[1], 308.1 K | 0.11 | – | – | – | –
[1], 308.2 K | – | – | – | – | 51.41
[1], 313.15 K | – | 894.6 | – | – | –
[1], 313.2 K | – | – | – | – | 41.45
[1], 313.9 K | 0.132 | – | – | – | –
[1], 317.72 K | – | – | – | 0.1838 | –
[1], 318.2 K | – | – | – | – | 34.56
[1], 318.4 K | 0.16 | – | – | – | –
[1], 323.15 K | – | 888 | – | – | –
[1], 323.2 K | – | – | – | – | 29.8
[1], 323.6 K | 0.184 | – | – | – | –
[1], 327.36 K | – | – | – | 0.1824 | –
[1], 328 K | 0.217 | – | – | – | –
[1], 328.2 K | – | – | – | – | 24.98
[1], 333.15 K | – | 880.5 | – | – | –
[1], 333.2 K | – | – | – | – | 20.36
[1], 333.6 K | 0.252 | – | – | – | –
[1], 337.88 K | – | – | – | 0.1814 | –
[1], 338.2 K | – | – | – | – | 17.31
[1], 338.9 K | 0.297 | – | – | – | –
[1], 343 K | 0.331 | – | – | – | –
[1], 343.15 K | – | 874.2 | – | – | –
[1], 343.2 K | – | – | – | – | 15.85
[1], 347.85 K | – | – | – | 0.1791 | –
[1], 348.2 K | – | – | – | – | 13.19
[1], 349.3 K | 0.391 | – | – | – | –
[1], 353.15 K | – | 867.8 | – | – | –
[1], 353.2 K | – | – | – | – | 11.18
[1], 358.05 K | – | – | – | 0.1774 | –
[1], 358.2 K | – | – | – | – | 10.4
[1], 363.15 K | – | 861 | – | – | –
[1], 363.2 K | – | – | – | – | 9.406
[1], 368.2 K | – | – | – | – | 8.038
[2], 298.15 K | – | – | 318.37 | – | –
[2], 303.15 K | – | – | 320.43 | – | –
[2], 308.15 K | – | – | 323.18 | – | –
[2], 313.15 K | – | – | 325.93 | – | –
[2], 318.15 K | – | – | 328.97 | – | –
[2], 323.15 K | – | – | 332.11 | – | –
[2], 328.15 K | – | – | 335.25 | – | –
[2], 333.15 K | – | – | 339.17 | – | –
[2], 338.15 K | – | – | 343.3 | – | –
[2], 343.15 K | – | – | 347.22 | – | –
[2], 348.15 K | – | – | 351.44 | – | –
[2], 353.15 K | – | – | 353.31 | – | –
[2], 358.15 K | – | – | 359 | – | –
[2], 363.15 K | – | – | 365.08 | – | –
